Where a name gives a salt, the structure may show the parent alone.

Drawing on patent publication US8034810B2, “Arylsulfonamido-substituted hydroxamic acid derivatives” (Novartis AG, priority 1999, dated 2011), this text covers IC50 for ten compounds.

This test deals with T1, MMP2 (gelatinase A) (Homo sapiens, UniProt P08253).
T1 construct: made in house; host or cells: Tn insect cells, baculovirus (pFAST BAC 1)
T1 sequence (P08253 110-660): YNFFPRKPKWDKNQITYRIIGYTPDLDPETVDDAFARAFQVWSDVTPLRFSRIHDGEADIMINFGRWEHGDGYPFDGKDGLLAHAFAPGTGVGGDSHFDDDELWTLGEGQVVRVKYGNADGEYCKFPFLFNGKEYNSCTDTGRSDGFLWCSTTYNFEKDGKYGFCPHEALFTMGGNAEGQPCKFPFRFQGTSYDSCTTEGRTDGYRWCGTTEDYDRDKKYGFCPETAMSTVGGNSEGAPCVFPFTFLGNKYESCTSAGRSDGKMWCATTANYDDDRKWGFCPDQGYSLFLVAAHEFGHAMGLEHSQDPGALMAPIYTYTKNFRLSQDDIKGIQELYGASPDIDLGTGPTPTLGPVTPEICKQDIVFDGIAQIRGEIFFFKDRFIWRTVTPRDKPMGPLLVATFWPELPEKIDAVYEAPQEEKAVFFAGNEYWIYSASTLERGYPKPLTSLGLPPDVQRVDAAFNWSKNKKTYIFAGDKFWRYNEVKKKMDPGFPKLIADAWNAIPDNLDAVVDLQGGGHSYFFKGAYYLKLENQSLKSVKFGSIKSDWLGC
The experiment in a line: In vitro inhibition of MMP2 (gelatinase A), fluorogenic peptide substrate. The format is biochemical. As to conditions: APMA-activated recombinant human proMMP2; substrate 10 μM; 37° C. How it is done: The inhibitory activities of compounds of formula I on MT1-MMP, MMP1 (collagenase 1) and MMP2 (gelatinase A) can be determined as follows:
Stock solutions of substrate (MCA-Pro-Leu-Gly-Leu-Dpa-Ala-Arg-NH2, Knight, C. G., Willenbrock, F., Murphy, G., A novel coumarin-labelled peptide for sensitive continuous assays of the matrix metalloproteinases, FEBS lett., 296, 263-266, (1992)), are prepared in 100% DMSO at a concentration 1.0 mM. Stock solutions of inhibitors are prepared in 100% DMSO. The inhibitor is diluted into the assays from a solution in 100% DMSO, and controls substitute an equal volume of DMSO so that the final DMSO concentration from inhibitor and substrate dilutions in all assays is 6.0%. Assays are performed in assay buffer (150 mM NaCl, 10 mM CaCl2, 50 mM Tris-Cl pH7.5, 0.05% Brij-35) containing 6.0% DMSO once the substrate and inhibitor are diluted into it. The substrate concentration used in the assays is 10 μM. The test is carried out at 37° C. The fluorescence changes are monitored using an excitation wavelength of 320 nm and an emission wavelength of […]. The reaction mixture is added in duplicate to appropriate wells of a 96 well microfluor plate. The reaction mixture is preincubated with the inhibitor for 30 min, the reaction is started by the addition of MMP enzyme and the fluorescence intensity is measured for 10 min. A time point that is on a linear part of the curve is chosen to determine the activity. The inhibition results are expressed as the inhibitor concentrations that produced 50% inhibition (IC50) of the activity in the control (non-inhibited) reaction. In this test, the compounds of the formula I and their pharmacologically acceptable salts have an inhibiting concentration IC50 [μmol/litre] of 0.0001 and 0.030, usually of 0.0002 to 0.010, for MMP2 and an inhibiting concentration IC50 [μmol/litre] of 0.0005 and 0.125, usually of 0.001 to 0.05, for MT1-MMP.
Plasmid: The cDNA for human proMMP2 is supplied by Prof. Motoharu Seiki, Institute of Medical Science, The University of Tokyo. The cDNA encoding a full length on human pro-MMP2 is generated by PCR of cDNA derived from RNA isolated from human HT1080 cells (ATCC# CCL121). The primers to generate this cDNA are GAATTCGATGGAGGCG CTAATGGCCCGG and […] corresponding to full length human pro-MMP2 of the reported cDNA sequence, GenBank accession number J03210. The resulting 2.0 Kb PCR fragment is cloned into EcoR1/Xho 1 site of pFAST BAC 1 vector (pBAC-MMP2) (Collier, I. E., Wilhelm, S. M., Eisen, A. Z., Manner, B. L., Grant, G. A., Seltzer, J. L., Kronberger, A., He, C., Bauer, E. A. and Goldberg, G. I. J. Biol. Chem., 263:6579-6587, 1988).
Expression and Purification: For baculovirus expression of r-proMMP2, pBAC-MMP2 is transformed into DH10BAC competent cells to produce a r-proMMP2 bacmid DNA. The recombinant bacmid DNA is transfected into cultured insect cells (Tn cells) with Cellfectin reagent (Gibco BRL). Recombinant baculovirus are plaque purified to homogeneity and are used to generate high titer stocks of the recombinant baculovirus. Expression of r-proMMP2 is confirmed by gelatin zymography.
Culture fluids of Tn cells infected with baculovirus are centrifuged and filtrated through a […] pore size filter to remove cell debris. The recombinant proMMP2 as absorbed to gelatin Sepharose 4B (Pharmacia Biotech) in equilibration buffer of in 25 mM Tris-HCl (pH 7.5), 1 M NaCl, 10 mM CaCl2, 0.05% Briji 35 at 4° C. After washing the beads with equilibration buffer, r-proMMP2 as eluted with equilibration buffer containing 10% DMSO. The enzyme are stored at 4° C. until activation. For assay, the purified proMMP2 is activated with 1 mM APMA for 1 hr at 37° C.
In general, IC50 refers to the concentration that inhibits the measured activity by half. For the compound “2-[(Cyclopropylmethoxy-benzenesulfonyl)-(4-[1,2,4]triazol-1-yl-benzyl)-amino]-N-hydroxyacetamide-hydrochloride salt [Example 82b]”, the IC50 was determined as 10.4 nM. Next, `O=C(CN(Cc1ccc(-n2cncn2)cc1)S(=O)(=O)c1ccc(OCc2ccoc2)cc1)NO` [Example 82c]: 5.3 nM.

As for `C=CCCOc1ccc(S(=O)(=O)N(CC(=O)NO)Cc2ccc(-n3ccnc3)cc2)cc1` [Example 80, 2-[(4-But-3-enyloxy-benzenesulfonyl)-(4-imidazol-1-yl-benzyl)-amino]-N-hydroxy-acetamide-hydrochloride], the IC50 was determined as 8 nM. Turning to `C#CCOc1ccc(S(=O)(=O)N(CC(=O)NO)Cc2ccc(OC)cc2)cc1` [Example 75, [(4-methoxy-benzyl)-[4-prop-2-ynyloxy-benzenesulfonyl]-amino]-N-hydroxy-acetamide], the IC50 worked out at 1 nM.

With `C=CCCOc1ccc(S(=O)(=O)N(CC(=O)NO)Cc2ccc(N3CCOCC3)cc2)cc1` [Example 81, 2-[(4-But-3-enyloxy-benzenesulfonyl)-(4-morpholin-4-yl-benzyl)-amino]-N-hydroxy-acetamide-hydrochloride], the IC50 turned out to be 10.4 nM. Consider `O=C(CN(Cc1ccc(-n2cncn2)cc1)S(=O)(=O)c1ccc(OCCC2CC2)cc1)NO` [Example 82a], for which the half-inhibitory concentration (IC50) came to 40.2 nM. Regarding `C=CCCOc1ccc(S(=O)(=O)N(CC(=O)NO)Cc2ccc(N3CCCC3)cc2)cc1` [Example 84a, 2-[(4-But-3-enyloxy-benzenesulfonyl)-(4-(pyrrolidin-1-yl)-benzyl)-amino]-N-hydroxyacetamide-hydrochloride], the half-inhibitory concentration (IC50) is 14.7 nM. Turning to `COc1ccc(CN(CC(=O)NO)S(=O)(=O)c2ccc(OCCCCl)cc2)cc1` [Example 68, 2-{[4-(3-chloro-propoxy)-benzenesulfonyl]-(4-methoxy-benzyl)amino}-N-hydroxy-acetamide], the half-inhibitory concentration (IC50) is 0.7 nM. As to `C=CCCOc1ccc(S(=O)(=O)N(CC(=O)NO)Cc2cccc(F)n2)cc1` [Example 83a, 2-([4-But-3-enyloxy-benzenesulfonyl]-(6-fluoro-pyridine-2-yl)methyl-amino)-N-hydroxyacetamide], the IC50 turned out to be 2.1 nM. Consider `C=CCCOc1ccc(S(=O)(=O)N(CC(=O)NO)Cc2ccc(-n3cncn3)cc2)cc1` [Example 79, 2-[(4-but-3-enyloxy-benzenesulfonyl)-(4-[1,2,4]triazol-1-yl-benzyl)-amino]-N-hydroxy-acetamide-hydrochloride salt], for which the IC50 worked out at 0.2 nM.
